Like-named read-outs stand apart in the source and are kept apart here.
Key:
[1] = test system: ovariectomized rats; details: ovariectomized animal/rats, cited from earlier work
[2] = test system: human osteoblast cultures; experiment: bone nodule formation in vitro in human osteoblast cultures (Von Kossa stain); assay type: cell-based; details: for stimulation of osteoblast cultures to form mineralized bone, Von Kossa stain (FIG. 2): different concentrations, human osteoblast cultures
Text: Human bone samples discarded after surgical procedures from patients undergoing hip/knee replacement surgeries are obtained under an approved IRB protocol (Protocol #2001-055) and processed as described below. These bone pieces are otherwise routinely discarded as waste material during surgery.
The bone pieces are thoroughly washed and cleaned under sterile conditions using phosphate-buffered saline (PBS). These pieces are then cut to obtain smaller pieces (1-2 mm^3) and subjected to enzymatic digestion process to isolate osteoblasts as described below.
Osteoblastic cells are obtained from the bone pieces by collagenase digestion. Briefly, the bone samples are washed twice in PBS and dissected in about 1 mm^3 size fragments which are then sequentially digested in trypsin (1 mg/mL) for ten minutes, followed by dispase (2 mg/mL) for twenty minutes, and bacterial collagenase [Collagenase A] (3 mg/mL) twice for thirty minutes in PBS at 37° C. in a water bath. Cells released by collagenase digestion are then washed, counted and grown to sub-confluence in 25 cm^2 cell culture flasks in 1:1 Ham's F12/Dulbecco's modification of Eagle's medium (DMEM) supplemented with 10% fetal bovine serum. Cells are cultured at 37° C. in a humidified atmosphere of 5% CO2/95% air. Medium changes are made every 2-3 days and cells are cultured until they are 80% confluent. Cells are then trypsinized, washed and frozen from early passages for evaluation using techniques as described below.
In order to evaluate the ability of osteoblasts to form bone nodules in vitro, cells are cultured in 6 well plates at 1-3×10^5 cells/well. Cells are cultured in the presence of either 1,25-(OH)2D3 or vitamin D analogs at various doses for 7 days. Complete medium changes are carried out twice during the 7-day period and the medium is supplemented with fresh compounds (either 1,25-(OH)2D3 or 2-methylene-19-nor-(20S)-1α,25-dihydroxyvitamin D3—2MD) during each medium change. At days 10 and 13, complete medium changes are carried out and the compounds are replaced by treatment with ascorbic acid (50 μg/ml) and β-glycerol phosphate (10 mM). A third dose of ascorbic acid and β-glycerol phosphate is added to the cultures on day 15 if needed. Following the culture period, cells are stained using the Von Kossa technique. Briefly, cells are stained with 5% silver nitrate for 30 minutes in the dark, rinsed with distilled water, reduced with sodium carbonate/formaldehyde solution for 2 minutes and washed under tap water for 10 minutes. The cells are then stained with methyl green pyronin for 20 minutes, washed with water followed by two washes of absolute alcohol. […] Bone nodule formation in vitro can be assessed quantitatively by various published procedures.

CC1C(O)CC(=CC=C2CCC[C@]3(C)[C@@H]([C@@H](C)CCCC(C)(C)O)CC[C@@H]23)CC1O (stereo partly drawn) [2α-methyl-19-nor-20S-1,25-(OH)2D3, 2α-methyl-19-nor-20(S)-1α,25-dihydroxyvitamin D3]
bone mass [1]: increase bone mass

C=C1[C@H](O)CC(=C/C=C2\CCC[C@]3(C)[C@@H]([C@@H](C)CCCC(C)(C)O)CC[C@@H]23)C[C@H]1O [2MD, 2-methylene-19-nor-(20S)-1α,25-dihydroxyvitamin D3]
degree of new bone formation ([2]; concentration of 10^−12 molar): saturating degree of new bone formation
stimulation of osteoblast cultures to form mineralized bone, Von Kossa stain (FIG. 2) [2]: unique and strong action
bone mass [1]: markedly stimulate bone mass accumulation
bone mass ([1]; listed as 2-methylene-19-nor-20S-1,25-(OH)2D3): increase bone mass

C=C1/C(=C\C=C2/CCC[C@]3(C)[C@@H]([C@H](C)CCCC(C)(C)O)CC[C@@H]23)C[C@@H](O)C[C@@H]1O [1,25-(OH)2D3, 1α,25-dihydroxyvitamin D3, reference compound]
change in osteoblast cultures / formation of mineralized bone (FIG. 1) ([2]; 10^−8 molar, after 14 days of incubation): very little change
stimulation of osteoblast cultures to form mineralized bone, Von Kossa stain (FIG. 2) [2]: does not produce this effect
